Assay results from US20060211761A1, “Hmg-coa-reductase inhibitors” (priority 2002, published 2006).
Structures can show the parent of a compound that is named as a salt.

These molecules were tested against HMG-CoA reductase (assay: in-vitro HMG-CoA reductase enzyme assay ([14C]mevalonate formation, liver microsomes), Table 1). Conditions: preincubated 37° C. 30 minutes, [14C] HMG-CoA substrate.
Format: biochemical
Procedure: (§1) Res. Comm., 50, 859 (1973).
(§2) HMG-CoA reductase is regarded as a rate-limiting enzyme in cholesterol biosynthesis, catalyzing the following reaction: [^14C]HMG-CoA+2NADPH+2H+[^14C]mevanolate+CoA+2NADP+microsomes, utilizing 2.5 mM [^14C] HMG-CoA as a substrate.
(§3) The reaction was carried out in presence of 100 mM KH2PO4, 20 mM G-6-P, 2.5 mM NADPH, 10 mM EDTA, 5 mM DTT and […], at 37° C. for 15 minutes and quantitating [^14C] mevalonate as an end product.

SMILES	IC50 [nM]
COc1ccc(NC(=O)c2c(-c3ccccc3)c(-c3ccc(F)cc3)n(CC[C@@H](O)C[C@@H](O)CC(=O)O)c2C2CC2)c(OC)c1 [S.No. 3, 7-[3-(2,4-dimethoxyphenylcarbamoyl)-5-(4-fluorophenyl)-2-(cyclopropyl)-4-phenyl-pyrrol-1-yl]-3R,5R-dihydroxy-heptanoic acid calcium salt]	0.00948
COc1ccc(NC(=O)c2c(-c3ccccc3)c(-c3ccccc3)n(CC[C@@H](O)C[C@@H](O)CC(=O)O)c2C(C)C)c(OC)c1 [S.No. 5, 7-[3-(2.4-dimethoxyphenylcarbamoyl)-4.5-diphenyl-2-(1-methylethyl-pyrrol-1-yl]-3R,5R-dihydroxy-heptanoic acid calcium salt]	0.0563
COc1cc(NC(=O)c2c(-c3ccccc3)c(-c3ccc(F)cc3)n(CC[C@@H](O)C[C@@H](O)CC(=O)O)c2C(C)C)cc(OC)c1 [Example 1, 7-[3-(3,5-dimethoxyphenylcarbamoyl)-5-(4-fluorophenyl)-2-(1-methylethyl)4-phenyl-pyrrol-1-yl]-3R,5R-dihydroxy-heptanoic acid calcium salt]	0.022

These molecules were tested against HMG CoA Reductase (assay: HMG CoA reductase inhibition, similar experiments with phenylhydroxy compounds of U.S. Pat. No. 5,385,929, Table 2). Conditions: compared to atorvastatin.
Format: biochemical
Procedure: as §1, §2, §3

SMILES	IC50 [nM]
CC(C)c1c(C(=O)Nc2ccc(O)cc2)c(-c2ccccc2)c(-c2ccc(F)cc2)n1CC[C@@H](O)C[C@@H](O)CC(=O)O [Para-hydroxyatorvastatin]	0.476
CC(C)c1c(C(=O)Nc2cccc(O)c2)c(-c2ccccc2)c(-c2ccc(F)cc2)n1CCC(O)CC(O)CC(=O)O (stereo not drawn) [Meta-hydroxyatorvastatin]	0.199
CC(C)c1c(C(=O)Nc2ccccc2O)c(-c2ccccc2)c(-c2ccc(F)cc2)n1CC[C@@H](O)C[C@@H](O)CC(=O)O [Ortho-hydroxyatorvastatin]	0.264
